{"source": "patent US11247993B2", "about": "“Pyridone derivative, composition and use as antiviral drug thereof” (priority 2018, dated 2022)", "key": {"[1]": {"tested_on": "influenza virus A/PR/8/34 (H1N1)", "assay": "organism not typed", "format": "cell-based", "conditions": "MDCK cells, A/PR/8/34 (H1N1), 5 days, CCK8; read-out: EC50"}, "MDCK cells": {"tested_on": "MDCK cells", "assay": "in vitro", "format": "cell-based", "description": "Method for cytotoxicity study: The cytotoxicity assay and antiviral activity assay of the compounds were performed in parallel, except for the absence of virus, other experimental conditions were consistent with the antiviral activity assay. After 5 days of culture, the cell viability was measured using the cell viability detection kit CCK8. Raw data were used for calculating compound cytotoxicity (CC50) (see Table 1 for results)."}}}
{"molecule": "O=C1c2c(O)c(=O)ccn2N([C@@H]2c3ccccc3SCc3c2ccc(F)c3F)[C@@H]2COCCN12", "note": "[Baloxavir acid, reference compound]", "values": [{"measurement": "EC50", "setting": "[1]", "result": 1.4, "unit": "nM"}, {"measurement": "CC50", "setting": "MDCK cells", "result": "> 1000", "unit": "nM"}]}
